Source: PubChem BioAssay AID2060610 (Molecular Pharmacology Branch, DTP, NCI, 2025)
Several values for one entry are separate records, joined by “and”; a condition that tells them apart may be missing. Equal entries are not always repeated.

System: 616215-338-R-J1-PDC complex spheroids, viability % test/control
Assay: Anticancer human tumor 616215-338-R-J1-PDC patient-derived colon adenocarcinoma cell line growth inhibition [CLK]
Settings: for viability, T/C: stronger effect = lower value
Procedure, shortened: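 Patient-derived tumor cells grown as complex spheroids with HUVEC endothelial cells and mesenchymal stem cells, treated with drug combinations. Concentrations descend in half-log steps from near clinical Cmax, or from 10 microM if Cmax unknown.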

[1] = curve of first compound, second compound 0.0316 µM
[2] = curve of first compound, second compound 0.1 µM
[3] = curve of first compound, second compound 0.316 µM
[4] = curve of first compound, second compound 1 µM
[5] = curve of first compound, second compound 3.16 µM
[6] = curve of first compound, second compound 10 µM
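Further: spheroids exposed to agents for 7 days.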
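Wherever viability, T/C is given: 100% = DMSO vehicle wells.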

`COC1C=CCC(C)C(C)S(=O)(=O)NC(=O)c2ccc3c(c2)N(CC2CCC21)CC1(CCCc2cc(Cl)ccc21)CO3` (configuration not stated) + CN1CCN(c2cc(C(=O)Nc3cc4cc(-c5cnn(C)c5)ccc4cn3)ccn2)CC1 was tested, and the IC50 [1] was 2360 nM, the IC50 [2] was 2870 nM and the IC50 [3] was < 31.6 nM. The IC50 [4] was < 31.6 nM, the IC50 [5] was < 31.6 nM and the IC50 [6] was < 31.6 nM. For the same compound, the viability, T/C (second compound 0.0316 µM, first compound 0.0316 µM) was 45.7%, the viability, T/C (second compound 0.0316 µM, first compound 0.1 µM) was 32.5% and the viability, T/C (second compound 0.0316 µM, first compound 0.316 µM) was 111%. The viability, T/C (second compound 0.0316 µM, first compound 1 µM) was 106%, the viability, T/C (second compound 0.0316 µM, first compound 3.16 µM) was 41.9% and the viability, T/C (second compound 0.0316 µM, first compound 10 µM) was 0.01%. It also gave a viability, T/C (second compound 0.1 µM, first compound 0.0316 µM) of 41.4%, a viability, T/C (second compound 0.1 µM, first compound 0.1 µM) of 44.4% and a viability, T/C (second compound 0.1 µM, first compound 0.316 µM) of 122%. For the same compound, the viability, T/C (second compound 0.1 µM, first compound 1 µM) was 116%, the viability, T/C (second compound 0.1 µM, first compound 3.16 µM) was 47.2% and the viability, T/C (second compound 0.1 µM, first compound 10 µM) was 0.01%. The viability, T/C (second compound 0.316 µM, first compound 0.0316 µM) was 9.08%, the viability, T/C (second compound 0.316 µM, first compound 0.1 µM) was 9.53% and the viability, T/C (second compound 0.316 µM, first compound 0.316 µM) was 21.3%. It also gave a viability, T/C (second compound 0.316 µM, first compound 1 µM) of 28.6%, a viability, T/C (second compound 0.316 µM, first compound 3.16 µM) of 20% and a viability, T/C (second compound 0.316 µM, first compound 10 µM) of 0.01%. For the same compound, the viability, T/C (second compound 1 µM, first compound 0.0316 µM) was 0.68%, the viability, T/C (second compound 1 µM, first compound 0.1 µM) was 0.08% and the viability, T/C (second compound 1 µM, first compound 0.316 µM) was 0.17%. The viability, T/C (second compound 1 µM, first compound 1 µM) was 0.14%, the viability, T/C (second compound 1 µM, first compound 3.16 µM) was 0.94% and the viability, T/C (second compound 1 µM, first compound 10 µM) was 0.01%. The viability, T/C (second compound 3.16 µM, first compound 0.0316 µM) was 0.04%, the viability, T/C (second compound 3.16 µM, first compound 0.1 µM) was 0.07% and the viability, T/C (second compound 3.16 µM, first compound 0.316 µM) was 0.18%. For the same compound, the viability, T/C (second compound 3.16 µM, first compound 1 µM) was 0.16%, the viability, T/C (second compound 3.16 µM, first compound 3.16 µM) was 0.18% and the viability, T/C (second compound 3.16 µM, first compound 10 µM) was 0.01%. For the same compound, the viability, T/C (second compound 10 µM, first compound 0.0316 µM) was 0.08%, the viability, T/C (second compound 10 µM, first compound 0.1 µM) was 0.09% and the viability, T/C (second compound 10 µM, first compound 0.316 µM) was 0.24%. The viability, T/C (second compound 10 µM, first compound 1 µM) was 0.27%, the viability, T/C (second compound 10 µM, first compound 3.16 µM) was 0.33% and the viability, T/C (second compound 10 µM, first compound 10 µM) was 0.01%.

With `CN1CCN(c2cc(C(=O)Nc3cc4cc(-c5cnn(C)c5)ccc4cn3)ccn2)CC1` the viability, T/C (compound 0.0316 µM) was 99.7% [middle of 12 runs], the viability, T/C (compound 0.1 µM) was 107% [middle of 12 runs] and the viability, T/C (compound 0.316 µM) was 34.7% [middle of 12 runs]. For the same compound, the viability, T/C (compound 1 µM) was 1.63% [middle of 11 runs], the viability, T/C (compound 3.16 µM) was 1% [middle of 11 runs] and the viability, T/C (compound 10 µM) was 0.25% [middle of 10 runs]. For the same compound, the IC50 (compound alone, run of 07/31/2023) was 238 nM [middle of 11 runs].

In the case of `CC(C)CC(NC(=O)C(Cc1ccccc1)NC(=O)c1cnccn1)B(O)O` (configuration not stated) + CN1CCN(c2cc(C(=O)Nc3cc4cc(-c5cnn(C)c5)ccc4cn3)ccn2)CC1, the IC50 [1] is reported as 5.54 nM, the IC50 [2] is reported as 5.8 nM and the IC50 [3] is reported as < 0.949 nM. The IC50 [4] was < 0.949 nM, the IC50 [5] was < 0.949 nM and the IC50 [6] was < 0.949 nM. For the same compound, the viability, T/C (second compound 0.0316 µM, first compound 0.000949 µM) was 105%, the viability, T/C (second compound 0.0316 µM, first compound 0.003 µM) was 107% and the viability, T/C (second compound 0.0316 µM, first compound 0.00949 µM) was 1.23%. It also gave a viability, T/C (second compound 0.0316 µM, first compound 0.03 µM) of 0.23%, a viability, T/C (second compound 0.0316 µM, first compound 0.0949 µM) of 0.16% and a viability, T/C (second compound 0.0316 µM, first compound 0.3 µM) of 1.94%. For the same compound, the viability, T/C (second compound 0.1 µM, first compound 0.000949 µM) was 121%, the viability, T/C (second compound 0.1 µM, first compound 0.003 µM) was 116% and the viability, T/C (second compound 0.1 µM, first compound 0.00949 µM) was 0.22%. The viability, T/C (second compound 0.1 µM, first compound 0.03 µM) was 0.19%, the viability, T/C (second compound 0.1 µM, first compound 0.0949 µM) was 0.18% and the viability, T/C (second compound 0.1 µM, first compound 0.3 µM) was 0.18%. The viability, T/C (second compound 0.316 µM, first compound 0.000949 µM) was 29.7%, the viability, T/C (second compound 0.316 µM, first compound 0.003 µM) was 4.76% and the viability, T/C (second compound 0.316 µM, first compound 0.00949 µM) was 0.19%. For the same compound, the viability, T/C (second compound 0.316 µM, first compound 0.03 µM) was 0.14%, the viability, T/C (second compound 0.316 µM, first compound 0.0949 µM) was 0.16% and the viability, T/C (second compound 0.316 µM, first compound 0.3 µM) was 0.13%. It also gave a viability, T/C (second compound 1 µM, first compound 0.000949 µM) of 0.15%, a viability, T/C (second compound 1 µM, first compound 0.003 µM) of 0.17% and a viability, T/C (second compound 1 µM, first compound 0.00949 µM) of 0.34%. It also gave a viability, T/C (second compound 1 µM, first compound 0.03 µM) of 0.1%, a viability, T/C (second compound 1 µM, first compound 0.0949 µM) of 0.1% and a viability, T/C (second compound 1 µM, first compound 0.3 µM) of 1.57%. For the same compound, the viability, T/C (second compound 3.16 µM, first compound 0.000949 µM) was 0.09%, the viability, T/C (second compound 3.16 µM, first compound 0.003 µM) was 0.13% and the viability, T/C (second compound 3.16 µM, first compound 0.00949 µM) was 0.12%. It also gave a viability, T/C (second compound 3.16 µM, first compound 0.03 µM) of 0.08%, a viability, T/C (second compound 3.16 µM, first compound 0.0949 µM) of 1.71% and a viability, T/C (second compound 3.16 µM, first compound 0.3 µM) of 0.13%. It also gave a viability, T/C (second compound 10 µM, first compound 0.000949 µM) of 0.08%, a viability, T/C (second compound 10 µM, first compound 0.003 µM) of 0.13% and a viability, T/C (second compound 10 µM, first compound 0.00949 µM) of 0.15%. The viability, T/C (second compound 10 µM, first compound 0.03 µM) was 0.11%, the viability, T/C (second compound 10 µM, first compound 0.0949 µM) was 2.22% and the viability, T/C (second compound 10 µM, first compound 0.3 µM) was 0.2%.

In the case of `COC1C=CCC(C)C(C)S(=O)(=O)NC(=O)c2ccc3c(c2)N(CC2CCC21)CC1(CCCc2cc(Cl)ccc21)CO3` (configuration not stated), the viability, T/C (compound 0.0316 µM) is reported as 42.2% and 92.1%, the viability, T/C (compound 0.1 µM) is reported as 33.1% and 98.1% and the viability, T/C (compound 0.316 µM) is reported as 95.7% and 96.9%. The viability, T/C (compound 1 µM) was 104% and 101%, the viability, T/C (compound 3.16 µM) was 38.7% and 103% and the IC50 (curve of compound) was 2050 nM and > 10000 nM.
